This experiment relates to CEM cells HIV-1 protection, formazan growth assay. Kind of experiment: NCI AIDS Antiviral Assay. Conditions: for IC50: measured here: growth of uninfected CEM cells. Put shortly: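 Human CEM cells, uninfected and HIV-1-infected, received five drug concentrations, and growth was read by soluble formazan assay. Compounds giving at least 50% protection were retested; reproducible 100% protection defined confirmed active.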

SMILES strings stand for the structures. Where “and” joins values, the source holds several entries; their conditions need not be identical. Equal entries are not always repeated. Calls of active or inactive are those of the source.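 How the source made its calls: active means compounds giving half or more protection of infected cells from virus-caused growth loss, again on retest; inactive means the rest.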 Where a SMILES comes first, the peptide text is derived from it. The star is where a group is joined. Cbz = O=C(OCc1ccccc1)*

This note sets out measurements from PubChem BioAssay AID179 (DTP/NCI, 2004).

As usually defined, the EC50 is the concentration that produces a half-maximal response. As usually defined, the IC50 is the concentration that gives 50% inhibition. `O=C(NCC1(O)N=C(c2ccc(F)cc2)c2ccsc2-n2cccc21)c1ccc(Cl)cc1Cl` (stereo not given): the EC50 is > 200 µM and the IC50 was determined as 18.2 µM.
The like results for `CC(C)CC1NC(=O)CCC(NC(=O)C(Cc2ccc(O)cc2)NC(=O)OCc2ccccc2)C(=O)NC(Cc2ccccc2)C(=O)NC(Cc2ccccc2)NC1=O` (stereo not given) were, in that order, > 200 µM and > 200 µM.
Take `CC1(C)CC2(C)ON=C(c3ccccc3)N2c2ccccc2N1` (stereo not given): the EC50 was 57.5 µM and the half-inhibitory concentration (IC50) amounted to 105 µM.
The like results for `COC(=O)c1ccccc1C1=C(O)C(=O)C(c2ccccc2C(=O)OC)=C(O)C1=O` were, in that order, > 63.1 µM and 6.76 µM.
Taken in the same sequence, the figures for `N#C/C(=C\c1ccccc1[N+](=O)[O-])c1ccccc1` were > 5.75 µM and > 5.75 µM.
With `CN(/N=C(\C(=O)O)c1ccccc1)C1=NCCCCN1`, the EC50 is > 200 µM and the IC50 was > 100 µM.
Taken in the same sequence, the figures for `CC(C)OP(=O)(OC(C)C)/C(=N/Nc1ccccc1[N+](=O)[O-])NNC(=O)c1ccccc1` were > 1.17 µM and > 1.17 µM.
Taken in the same sequence, the figures for `COc1ccc(C=C2C(=O)OC(C)(C)OC2=O)cc1` were > 501 µM and 151 µM.
As to `Cc1ccc(C)c(NC(=O)C(=O)Nn2c(=S)[nH]c3ccccc3c2=O)c1`, the EC50 is > 501 µM and the IC50 was 191 µM.
Turning to `CC(=O)OC/C=C(/C)C[P+](c1ccccc1)(c1ccccc1)c1ccccc1`, the EC50 was > 200 µM and the concentration for half-maximal inhibition (IC50) worked out at 0.955 µM.
As for `CC(=O)OC(C(=O)C(O)C(C)C)C(C)C` (stereo not given), the EC50 is > 832 µM and the half-inhibitory concentration (IC50) was > 832 µM.
As for `Cc1ccc(C2=C/C(=C/c3ccc(N(CCC#N)CCC#N)cc3)C(=O)O2)cc1`, the EC50 is > 200 µM and the IC50 is > 200 µM.
With `O=S(=O)(c1ccc(Br)cc1)S(=O)(=O)c1ccc(Br)cc1`, the EC50 is > 11.7 µM and the IC50 is > 11.7 µM.
As to `CCn1c(SCC(=O)N/N=C/c2ccccc2)nc2ccccc2c1=O`, the EC50 was > 200 µM and the IC50 is 23.4 µM.
The like results for `C[Si](C)(C)OC1(C2=CCCC2)CCCC1CC#N` (stereo not given) were, in that order, > 955 µM and > 955 µM.
In the case of `COc1ccc2c(c1)CCC1=C2C=C[P+]1(C)C`, the outcome was inactive.
For the compound `CC1OC(n2ncc(=O)[nH]c2=O)C=CC1=O` (stereo not given), the EC50 is > 1120 µM; the IC50 was 10 µM and 6.92 µM.
`C[N+]1=C(c2ccc[n+](C)c2/C=N/O)OCC1(C)C`: the EC50 was > 501 µM and the half-inhibitory concentration (IC50) is > 501 µM.
Take `COC/N=C(/N)NC#N`: the EC50 is > 692 µM and the IC50 was > 692 µM.
Take `CC(O)CN1C(=O)C2C3C=CC(C3)C2C1=O` (stereo not given): the EC50 is > 200 µM and the IC50 is > 200 µM.
For the compound `N#CC(C#N)=c1cc/c(=c2/ccc(=C(C#N)C#N)s2)s1`, the EC50 is > 24.5 µM and the 50% inhibitory concentration (IC50) was > 24.5 µM.
In the case of `O=c1sc2c(s1)-c1sc(=O)sc1SS2`, the EC50 was > 77.6 µM and the 50% inhibitory concentration (IC50) was 51.3 µM.
For `CC(NC(=O)C(NC(=O)OCc1ccccc1)C(C)C)C(=O)NCC(=O)O` (stereo not drawn) (Cbz-Val-Ala-Gly-OH; configuration not given here), the EC50 is > 200 µM and the IC50 is > 200 µM.
As for `CCCN(CC)C(=O)COc1cc2c(O)c3c(O)c(C)c4c(c13)C(=O)C(C)(O/C=C/C(OC)C(C)C(OC(C)=O)C(C)C(O)C(C)C(O)C(C)/C=C/C=C(\C)C(=O)N2)O4` (stereo not given), the EC50 is > 200 µM and the 50% inhibitory concentration (IC50) came out at 12.9 µM.
Taken in the same sequence, the figures for `S=C(N1CCN(c2ccccc2)CC1)N1CCN(c2ccccc2)CC1` were > 200 µM and > 200 µM.
In the case of `CC(C)(C)N=C(NO)c1ccccc1`, the outcome was inactive.
Regarding `CC1=C(C)CS(=O)(=O)N(c2ccccc2)C1`, the EC50 was > 200 µM and the IC50 is > 200 µM.
On to `O=CN1CCN(C=O)C(O)C1O` (stereo not given), for which the EC50 was > 200 µM and the IC50 was > 200 µM.
As to `COc1nc(N)c(NC2OC(CO)C(O)C2O)c(=O)[nH]1` (stereo not given), the EC50 is > 200 µM; the IC50 is 112 µM and 126 µM.
With `Cc1ccc2c(CC(=O)O)cc(=O)oc2c1C`, the EC50 was > 200 µM and the half-inhibitory concentration (IC50) was determined as 155 µM.
Taken in the same sequence, the figures for `[N-]=[N+]=Nc1ccc2c(c1)Sc1ccccc1N2CCCCN1CCN(Cc2ccc(C(=O)c3ccccc3)cc2)CC1` were > 100 µM and 6.03 µM.
In the case of `COc1ccc(C(Nc2nc3c(ncn3COCCOP(=O)(OCOC(=O)C(C)(C)C)OCOC(=O)C(C)(C)C)c(=O)[nH]2)(c2ccccc2)c2ccccc2)cc1`, the EC50 is > 100 µM and the IC50 was determined as 8.71 µM.
Consider `O=c1ccn(C2OC(CO)C(O)C2F)c(=O)n1Cc1ccccc1` (stereo not given), for which the EC50 was > 200 µM and the IC50 is > 200 µM.
For `C/C(=N\O)c1ccccc1`, the result was inactive.
The same measure, in the same setting: next, `CSc1nc(-c2ccccc2)nc(C(C#N)C#N)n1`: “inactive”.
For `COC(=O)C1(O)c2ccccc2N=C2C(=O)c3ccccc3N21` (stereo not given), the EC50 was > 200 µM and the IC50 is > 200 µM.
Consider `COc1ccc(NC(=O)/C(C#N)=C/c2ccc(O)c(O)c2)cc1O`, for which the EC50 was > 200 µM and the IC50 worked out at 16.2 µM.
The like results for `Cc1nc(N)nc(N)c1N1CCNCC1` were, in that order, > 200 µM and > 200 µM.
Take `O=[As]c1ccc(C(=O)O)cc1` (stereo not given): the EC50 was > 1170 µM and the concentration for half-maximal inhibition (IC50) stood at 245 µM.
For `CC(=O)[O-].[Zn].c1ccc(/C(=N\Nc2ccccn2)c2ccccn2)cc1`, the result was inactive.
As to `CC(C)CN1CN(c2ccccc2)C2(CCN(CC(C)(c3ccc(F)cc3)C3OCCO3)CC2)C1=O` (stereo not given), the EC50 was > 100 µM and the IC50 stood at 12.6 µM.
As to `OCC1CC2CC1C1(C2)OCCO1` (stereo not given), the result was inactive.
Same read-out and setting: for `C=C1C(OC(=O)CC(c2ccccc2)N(C)C)C[C@H](OC(C)=O)[C@]2(C)C1C(O)[C@@H]1CC(OC(C)=O)C(C)=C([C@@H](OC(C)=O)C2OC(C)=O)C1(C)C` (stereo not given in full) the value was “inactive”.
Consider `COc1ccc2nc3ccc(OC)cc3c(SCCO)c2c1`, for which the EC50 was > 200 µM and the IC50 was determined as 8.51 µM.
Consider `O=C(/C=C/c1c(O)ccc2ccccc12)c1cccc(O)c1`, for which the EC50 is > 617 µM and the IC50 came to 91.2 µM.
For the compound `O=C(N/C(=C\c1ccc([N+](=O)[O-])cc1)c1nc2ccc(Cl)cc2[nH]1)c1ccccc1`, the result was inactive.
Regarding `CCOC(=O)C(C(=O)OCC)=C1SC(=Nc2ccccc2)C(=Nc2ccccc2)N1c1ccccc1`, the EC50 was > 200 µM and the IC50 was determined as 70.8 µM.
Taken in the same sequence, the figures for `Cn1c(N)c(N=O)c(=O)n(C)c1=S` were > 200 µM and > 200 µM.
Taken in the same sequence, the figures for `COC1CC(C)([N+](=O)[O-])C(O)C(C)O1` (stereo not given) were > 200 µM and > 200 µM.
The like results for `CCCCCC[N+]1(C)CC2C3C=CC(C3)C2C1` (stereo not given) were, in that order, > 245 µM and > 100 µM.
`CN1NC2(CCCCC2)ON=C1c1ccccc1`: the result was inactive.
Regarding `S=C(Nc1cccc(-c2ccccc2)c1)Nc1ccc(Br)cn1`, the EC50 is > 200 µM and the IC50 worked out at 1.17 µM.
The like results for `N#Cc1c[nH]c(=O)[nH]c1=O` were, in that order, > 200 µM and > 200 µM.
Taken in the same sequence, the figures for `CCCC(=O)Oc1c(Cl)cc(C(=CCC[C@H]2CC[C@@]3(C)[C@@H](CC[C@@H]4[C@@H]3CC[C@]3(C)[C@@H]([C@H](C)CCCC(C)C)CC[C@@H]43)C2)c2cc(Cl)c(OC(=O)CCC)c(C(=O)O)c2)cc1C(=O)O` were 79.4 µM and > 100 µM.
As for `O=C(NNC1=NCCCN1)c1ccco1`, the EC50 was > 200 µM and the IC50 was > 200 µM.
Turning to `COc1ccc(-n2c(-c3ccccc3)cc(-c3cccs3)c2-c2cccs2)cc1`, the EC50 was > 200 µM and the IC50 was > 200 µM.
Regarding `CS(=O)(=O)NC(=O)C[P+](c1ccccc1)(c1ccccc1)c1ccccc1`, the EC50 is > 200 µM and the IC50 is > 200 µM.
With `CC(C)Oc1c(C2(c3ccccc3O)SCCCS2)c(=O)c1=O`, the EC50 was > 200 µM and the IC50 is 112 µM.
Consider `CCOC(=O)N1CCc2cc(OC)c(OC)c3c2c1cc1cc(OC)c(OC)cc13`, for which the outcome was inactive.
For the compound `CCn1c(O)c(C=Nc2ccccc2)s/c1=N/Nc1nc(-c2ccc([N+](=O)[O-])cc2)cs1`, the EC50 is > 200 µM and the IC50 is 14.5 µM.
For `CCOP(=O)(OCC)/C(=C\NC(=S)N=Nc1c(O)[nH]c2ccccc12)C(=O)OC`, the EC50 is > 200 µM and the IC50 came to 117 µM.
On to `Nc1nc2c(=O)c3ccccc3sc2s1`, for which the result was inactive.
For the compound `Nc1ccc(/C=C/c2ccc(N=Nc3ccc(/C=C/c4ccc(N=Nc5ccc(/C=C/c6ccc(N=Nc7ccc(/C=C/c8ccc(N)cc8S(=O)(=O)O)c(S(=O)(=O)O)c7)cc6S(=O)(=O)O)c(S(=O)(=O)O)c5)cc4S(=O)(=O)O)c(S(=O)(=O)O)c3)cc2S(=O)(=O)O)c(S(=O)(=O)O)c1`, the 50% effective concentration (EC50) is 1.78 µM and the IC50 came to 186 µM.
Taken in the same sequence, the figures for `COc1c2occc2c(N)c2ccc(=O)oc12` were > 95.5 µM and > 95.5 µM.
Consider `O=C1c2cccc3c2C(=O)c2c(cccc21)OCCOCCOCCOCCO3`, for which the result was inactive.
Take `CO/N=C/c1cc(OC)c(OC)c(OC)c1`: the EC50 is > 813 µM and the IC50 was > 813 µM.
Take `O=S(=O)(O)c1ccc(Sc2ccc(S(=O)(=O)O)cc2)cc1`: the EC50 was > 631 µM and the IC50 is > 631 µM.
Turning to `Cc1cc(C)nc(NS(=O)(=O)c2ccc(NC(=O)NC(F)(F)F)cc2)n1`, the EC50 was > 200 µM and the IC50 was > 200 µM.
In the case of `CCN(CC)c1ccc2cc(-c3nc4ccccc4[nH]3)c(=O)oc2c1`, the EC50 is > 7.76 µM and the half-inhibitory concentration (IC50) was > 7.76 µM.
For the compound `CN(C)C(=O)c1ccc(N=Nc2c(O)c3ccccc3[nH]c2=O)cc1`, the EC50 was > 200 µM and the IC50 is 36.3 µM.
The like results for `O=S(=O)(c1ccc(NC2=NC(c3ccc(O)cc3)(c3ccccc3O)c3ccccc32)cc1)c1ccc(NC2=NC(c3ccc(O)cc3)(c3ccccc3O)c3ccccc32)cc1` (stereo not given) were, in that order, > 200 µM and 3.47 µM.
